Assay results reported in patent US20120122896A1, “2,1,3-BENZOXADIAZOL DERIVATIVES FOR THE INHIBITION OF INFLUENZA A AND B VIRUS AND RESPIRATORY SYNCYTIAL VIRUS REPLICATION” (PIKE PHARMA GMBH, priority 2009, published 2012).
Read-outs that look alike come from different tables or passages of the source.

Key:
[1] = target: interaction between PB1 and PA (Influenza A virus, UniProt P03433); assay: biochemical; format: binding; conditions: for IC50: calculated from inhibition at maximum obtainable concentration where solubility too low, read-out: IC50 [μM] (ELISA); for inhibition at 1000 µM: highest concentration used, read-out: Max. Inhibition (ELISA) at 1000 μM
RSV (Long strain) = assay: RSV induced cell death reduction in HEp-2 cells; format: cell-based, respiratory syncytial virus; conditions: for inhibition at 33 µM: HEp-2, read-out: RSV activity, Maximum inhibition; for RSV activity, Maximum inhibition (in words): serial dilution 100 to 0.14 μM, 72 h
[2] = human respiratory syncytial virus, HEp-2, read-out: RSV activity, Maximum inhibition
[3] = human respiratory syncytial virus
[4] = human respiratory syncytial virus, HEp-2

SMILES	Active in ELISA ([1]; prescreening)	inhibition of RSV replication (summary in words) (RSV (Long strain))	RSV activity, Maximum inhibition (in words) (RSV (Long strain))	further results
Cc1ccc(Sc2ccc([N+](=O)[O-])c3nonc23)cc1 [PKE068, 4-[(4-methylphenyl)thio]-7-nitro-2,1,3-benzoxadiazole]	Yes			IC50 [1]: > 1000 µM; inhibition at 1000 µM [1]: 46%
Cc1ccccc1Nc1ccc([N+](=O)[O-])c2nonc12 [PKE131, N-(2-methylphenyl)-4-nitro-2,1,3-benzoxadiazol-7-amine]	No	effective		inhibition at 11 µM (RSV (Long strain); [2]): 48%
O=[N+]([O-])c1ccc(NCc2cccs2)c2nonc12 [PKE073, N4-(2-thienylmethyl)-7-nitro-2,1,3-benzoxadiazol-4-amine]		effective		Active in ELISA [1]: No; inhibition at 33 µM (RSV (Long strain); [3]): 42%
O=[N+]([O-])c1ccc(N2CCCC2)c2nonc12 [PKE072, 4-nitro-7-tetrahydro-1H-pyrrol-1-yl-2,1,3-benzoxadiazole]		effective		Active in ELISA [1]: No; inhibition at 33 µM (RSV (Long strain); [3]): 44%
O=[N+]([O-])c1ccc(Sc2ncnc3nc[nH]c23)c2nonc12 [PKE139, 4-nitro-7-(7H-purin-6-ylsulfanyl)-2,1,3-benzoxadiazole]	No		inactive	
Cc1ccc(Nc2ccc([N+](=O)[O-])c3nonc23)cc1 [PKE074, N4-(4-methylphenyl)-7-nitro-2,1,3-benzoxadiazol-4-amine]	No			
COc1ccc(Nc2ccc([N+](=O)[O-])c3nonc23)cc1 [PKE069, N4-(4-methoxyphenyl)-7-nitro-2,1,3-benzoxadiazol-4-amine]	No		inactive	
O=[N+]([O-])c1ccc(Sc2cccc(Cl)c2)c2nonc12 [PKE080, 4-[(3-chlorophenyl)thio]-7-nitro-2,1,3-benzoxadiazole]	Yes			IC50 [1]: 60 µM
O=[N+]([O-])c1ccc(Nc2ccc(Cl)cc2)c2nonc12 [PKE120, N-(4-chlorophenyl)-4-nitro-2,1,3-benzoxadiazol-7-amine]	No	effective		IC50 (RSV (Long strain); [4]): 2 µM; inhibition at 3.7 µM (RSV (Long strain); human respiratory syncytial virus, HEp-2, at 3.7 μM, read-out: RSV activity, Maximum inhibition): 67%
O=[N+]([O-])c1ccc(N2CCN(c3ccccc3)CC2)c2nonc12 [PKE135, 4-nitro-7-(4-phenylpiperazin-1-yl)-2,1,3-benzoxadiazole]	No		inactive	
CC(C)(C)c1csc(-c2ccc3nonc3c2)n1 [PKE140, 5-[4-(tert-butyl)-1,3-thiazol-2-yl]-2,1,3-benzoxadiazole]	Yes		inactive	IC50 [1]: > 1000 µM; inhibition at 1000 µM [1]: 34%
O=[N+]([O-])c1c(NCc2ccccc2)ccc2nonc12 [PKE190, N-benzyl-4-nitro-2,1,3-benzoxadiazol-5-amine]	Yes		inactive	IC50 [1]: > 1000 µM; inhibition at 1000 µM [1]: 37%
Nc1nc(Sc2ccc([N+](=O)[O-])c3nonc23)c2[nH]cnc2n1 [PKE110, 6-[(4-nitro-2,1,3-benzoxadiazol-7-yl)sulfanyl]-7H-purin-2-amine]	No		inactive	
O=[N+]([O-])c1ccc(N2CCN(Cc3ccccc3)CC2)c2c1no[n+]2[O-] [PKE133, 4-nitro-1-oxido-7-[4-(phenylmethyl)piperazin-1-yl]-2,1,3-benzoxadiazol-1-ium]	No		inactive	
Cc1cccc(Nc2ccc([N+](=O)[O-])c3nonc23)c1 [PKE078, N4-(3-methylphenyl)-7-nitro-2,1,3-benzoxadiazol-4-amine]	No	effective		IC50 (RSV (Long strain); [4]): 6 µM; inhibition at 11 µM (RSV (Long strain); [2]): 56%
O=[N+]([O-])c1ccc(Nc2ccc(F)cc2)c2nonc12 [PKE070, N4-(4-fluorophenyl)-7-nitro-2,1,3-benzoxadiazol-4-amine]	No	effective		IC50 (RSV (Long strain); [4]): 4 µM; inhibition at 11 µM (RSV (Long strain); [2]): 75%
CCCCN1CCN(c2ccc([N+](=O)[O-])c3no[n+]([O-])c23)CC1 [PKE134, 7-(4-butylpiperazin-1-yl)-4-nitro-1-oxido-2,1,3-benzoxadiazol-1-ium]	No		inactive	
O=c1[nH]nc(Sc2ccccc2)c2nncn12 [PKE217, 8-phenylsulfanyl-6H-[1,2,4]triazolo[4,3-d][1,2,4]triazin-5-one]	No			
CCN(CC)CCCNc1ccc([N+](=O)[O-])c2no[n+]([O-])c12 [PKE136, N,N-diethyl-N′-(4-nitro-1-oxido-2,1,3-benzoxadiazol-1-ium-7-yl)propane-1,3-diamine]	No		inactive	
O=[N+]([O-])c1ccc(SCCO)c2nonc12 [PKE076, 2-[(7-nitro-2,1,3-benzoxadiazol-4-yl)thio]ethan-1-ol]			inactive	
O=C(OCCSc1ccc([N+](=O)[O-])c2nonc12)c1ccccc1 [PKE083, 2-[(7-nitro-2,1,3-benzoxadiazol-4-yl)thio]ethyl benzoate]	No		inactive	
O=[N+]([O-])c1ccc(Nc2ccccc2)c2nonc12 [PKE118, 4-nitro-N-phenyl-2,1,3-benzoxadiazol-7-amine]	No	effective		inhibition at 11 µM (RSV (Long strain); [2]): 44%
COc1ccc(CSc2ccc([N+](=O)[O-])c3nonc23)cc1 [PKE060, 4-[(4-methoxybenzyl)thio]-7-nitro-2,1,3-benzoxadiazole]	Yes			
O=[N+]([O-])c1ccc(Nc2cccc(F)c2)c2nonc12 [PKE071, N4-(3-fluorophenyl)-7-nitro-2,1,3-benzoxadiazol-4-amine]	No	effective		IC50 (RSV (Long strain); [4]): 4 µM; inhibition at 11 µM (RSV (Long strain); [2]): 73%
O=[N+]([O-])c1ccc(Sc2ccc(Cl)cc2Cl)c2nonc12 [PKE075, 4-[(2,4-dichlorophenyl)thio]-7-nitro-2,1,3-benzoxadiazole]	Yes			IC50 [1]: > 1000 µM; inhibition at 1000 µM [1]: 35%
COc1ccc(S(=O)(=O)OCCSc2ccc([N+](=O)[O-])c3nonc23)cc1 [PKE061, 2-[(7-nitro-2,1,3-benzoxadiazol-4-yl)thio]ethyl 4-methoxybenzene-1-sulfonate]	Yes		inactive	IC50 [1]: > 1000 µM; inhibition at 1000 µM [1]: 37%
COc1ccc(C(=O)OCCSc2ccc([N+](=O)[O-])c3nonc23)cc1 [PKE082, 2-[(7-nitro-2,1,3-benzoxadiazol-4-yl)thio]ethyl-4-methoxybenzoate]	Yes			IC50 [1]: 100 µM
O=C(OCCSc1ccc([N+](=O)[O-])c2nonc12)c1ccc(Cl)cc1Cl [PKE081, 2-[(7-nitro-2,1,3-benzoxadiazol-4-yl)thio]ethyl 2,4-dichlorobenzoate]	No			
COc1ccc(Nc2ccc([N+](=O)[O-])c3nonc23)cc1 [PKE119, N-(4-methoxyphenyl)-4-nitro-2,1,3-benzoxadiazol-7-amine]		effective		inhibition at 11 µM (RSV (Long strain); [2]): 21%
